Results: patent publication US7902181B2, “Compounds 010” (AstraZeneca AB, priority 2007, dated 2011)
Structures can show the parent of a compound that is named as a salt.

molecular target: Recombinant Human (rh) DPP1 (Homo sapiens, UniProt P53634); experiment: Fluorescence Assay for Recombinant Human (rh) DPP1; assay type: biochemical; details: rhDPP1; substrate H-Gly-Arg-AMC; pH5.0; 30 min pre-incubation, 60 min reaction at 22° C.; highest concentration 10 μM; read-out: DPP1 activity, pIC50 (converted)
Sequence (P53634 25-463): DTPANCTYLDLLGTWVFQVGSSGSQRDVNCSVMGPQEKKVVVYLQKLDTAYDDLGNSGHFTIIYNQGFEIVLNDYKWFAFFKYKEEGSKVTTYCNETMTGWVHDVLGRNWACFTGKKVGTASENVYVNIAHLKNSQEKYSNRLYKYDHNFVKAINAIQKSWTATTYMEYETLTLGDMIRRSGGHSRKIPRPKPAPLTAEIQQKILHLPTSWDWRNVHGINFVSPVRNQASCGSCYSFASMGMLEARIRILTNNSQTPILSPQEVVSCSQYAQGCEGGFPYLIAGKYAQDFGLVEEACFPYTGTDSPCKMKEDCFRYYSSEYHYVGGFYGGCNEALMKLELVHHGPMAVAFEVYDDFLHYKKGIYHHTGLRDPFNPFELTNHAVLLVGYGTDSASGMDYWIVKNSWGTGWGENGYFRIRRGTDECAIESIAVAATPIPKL
Description: Fluorescence Assay for Recombinant Human (rh) DPP1
The activity of DPP1 was determined by measuring the enzymatic release of aminomethyl coumarin (AMC) from the peptide substrate (H-Gly-Arg-AMC), which leads to an increase in fluorescence intensity at λex=350 nm and λem=450 nm. The assay was carried out in black 384 well plates in a final volume of 50 μl at 22° C. The assay conditions contained the following: 25 mM piperazine buffer pH5.0; 50 mM NaCl, 5 mM DTT; 0.01% (v/v) Triton X-100; 100 μM H-Gly-Arg-AMC and rhDPP1 ([…]). Potential inhibitors were made up in DMSO and then diluted in the assay to give a final concentration of 1% (v/v) DMSO. A 12-point half-log dilution of the inhibitors (highest concentration 10 μM) was tested and the pIC50 determined using a 4-parameter logistic equation in a non-linear curve fitting routine. A standard DPP1 inhibitor (vinyl sulfone, see below) was used as a positive control in the assay. Routinely, inhibitors were pre-incubated with rhDPP1 for 30 min prior to the addition of the peptide substrate to start the reaction for a further 60 min at 22° C. After that the plates were immediately read in a fluorescence plate reader using the above emission and excitation wavelengths [modified from Kam, C M, Gotz, M G, Koot, G, McGuire, M J, Thiele, D L, Hudig, D & Powers, J C (2004). Arch Biochem Biophys, 427, 123-134 & McGuire, M J, Lipsky, P E & Thiele, D L (1992). Arch Biochem Biophys, 295, 280-288].

SMILES	IC50
COc1ncc(-c2ccc(C[C@@H](C#N)NC(=O)[C@@H]3CCCCN3)cc2)cn1 [Example 46, (2S)-N-[(1S)-1-Cyano-2-[4-(2-methoxypyrimidin-5-yl)phenyl]ethyl]piperidine-2-carboxamide trifluoroacetate]	1260 nM
N#C[C@H](Cc1ccc(-c2cnn(Cc3ccccc3)c2)cc1)NC(=O)[C@@H]1CCCCN1 [Example 4, (S)-N-((S)-2-(4-(1-Benzyl-1H-pyrazol-4-yl)phenyl)-1-cyanoethyl)-piperidine-2-carboxamide Trifluoroacetate]	31.6 nM
COc1c(F)cc(F)cc1-c1ccc(C[C@@H](C#N)NC(=O)[C@@H]2CCCCN2)cc1 [Example 44, (2S)-N-[(1S)-1-Cyano-2-[4-(3,5-difluoro-2-methoxy-phenyl)phenyl]ethyl]pipe-ridine-2-carboxamide trifluoroacetate]	631 nM
N#C[C@H](Cc1ccc(-c2ccc3c(c2)SCC(=O)N3)cc1)NC(=O)[C@@H]1CCCCN1 [Example 68, (S)-N-((S)-1-Cyano-2-(4-(3-oxo-3,4-dihydro-2H-benzo[b][1,4]thia-zin-7-yl)phenyl)ethyl) piperidine-2-carboxamide]	15.8 nM
N#C[C@H](Cc1ccc(-c2ccc3c(c2)OCO3)cc1)NC(=O)[C@@H]1CCCCN1 [Example 28, (2S)-N-[(1S)-2-(4-Benzo[1,3]dioxol-5-ylphenyl)-1-cyano-ethyl]piperidine-2-carboxamide trifluoroacetate]	100 nM
N#C[C@H](Cc1ccc(-c2cc3ccccc3[nH]2)cc1)NC(=O)[C@@H]1CCCCN1 [Example 14, (S)-N-((S)-2-(4-(1H-Indol-2-yl)phenyl)-1-cyanoethyl)piperidine-2-carboxamide Trifluoroacetate]	7.94 nM
CS(=O)(=O)c1cc(-c2ccc(C[C@@H](C#N)NC(=O)[C@@H]3CCCCN3)cc2)ccc1C#N [Example 58, (S)-N-((S)-1-Cyano-2-(4′-cyano-3′-(methylsulfonyl)biphenyl-4-yl)ethyl)piperidine-2-carboxamide]	15.8 nM
N#CC(Cc1ccc(-c2ccc(S(=O)(=O)N3CCOCC3)cc2)cc1)NC(=O)[C@@H]1CCCCN1 (mixture of isomers) [Example 94, (S)-N-((S)-1-Cyano-2-(4′-(morpholinosulfonyl)biphenyl-4-yl)ethyl)piperidine-2-carboxamide Trifluoroacetate]	15.8 nM
CS(=O)(=O)NCc1cccc(-c2ccc(C[C@@H](C#N)NC(=O)[C@@H]3CCCCN3)cc2)c1 [Example 89, (S)-N-((S)-1-Cyano-2-(3′-(methylsulfonamidomethyl)biphenyl-4-yl)ethyl)piperidine-2-carboxamide Trifluoroacetate]	63.1 nM
CN(C)c1ncc(-c2ccc(C[C@@H](C#N)NC(=O)[C@@H]3CCCCN3)cc2)cn1 [Example 37, (2S)-N-[(1S)-1-Cyano-2-[4-(2-dimethylaminopyrimidin-5-yl)phenyl]ethyl]piperidine-2-carboxamide trifluoroacetate]	316 nM
N#Cc1cccc(-c2ccc(C[C@@H](C#N)NC(=O)[C@@H]3CCCCN3)cn2)c1 [Example 78, (S)-N-((S)-1-Cyano-2-(6-(3-cyanophenyl)pyridin-3-yl)ethyl)piperidine-2-carboxamide Trifluoroacetate]	100 nM
N#C[C@H](Cc1ccc(-c2cccc(C(=O)Nc3nccs3)c2)cc1)NC(=O)[C@@H]1CCCCN1 [Example 84, (S)-N-((S)-1-Cyano-2-(3′-(thiazol-2-ylcarbamoyl)biphenyl-4-yl)ethyl)piperidine-2-carboxamide Trifluoroacetate]	25.1 nM
CN1CCN(S(=O)(=O)c2ccc(-c3ccc(C[C@@H](C#N)NC(=O)[C@@H]4CCCCN4)cc3)cc2)CC1 [Example 95, (S)-N-((S)-1-Cyano-2-(4′-(4-methylpiperazin-1-ylsulfonyl)biphenyl-4-yl)ethyl)piperidine-2-carboxamide Trifluoroacetate]	3.16 nM
CCS(=O)(=O)c1cc(-c2ccc(C[C@@H](C#N)NC(=O)[C@@H]3CCCCN3)cc2)ccc1C#N [Example 59, (S)-N-((S)-1-Cyano-2-(4′-cyano-3′-(ethylsulfonyl)biphenyl-4-yl)ethyl)piperidine-2-carboxamide]	15.8 nM
N#C[C@H](Cc1ccc(-c2ccc(F)cc2OCc2ccccc2)cc1)NC(=O)[C@@H]1CCCCN1 [Example 30, (2S)-N-[(1S)-1-Cyano-2-[4-(4-fluoro-2-phenylmethoxy-phenyl)phenyl]ethyl]pipe-ridine-2-carboxamide trifluoroacetate]	100 nM
N#C[C@H](Cc1ccc(-c2cccc3cccnc23)cc1)NC(=O)[C@@H]1CCCCN1 [Example 49, (2S)-N-[(1S)-1-Cyano-2-(4-quinolin-8-ylphenyl)phenyl]piperidine-2-carboxamide trifluoroacetate]	2000 nM
CS(=O)(=O)c1cc(-c2ccc(C[C@@H](C#N)NC(=O)[C@@H]3CCCCN3)cc2)ccc1CC#N [Example 101, (S)-N-((S)-1-Cyano-2-(4′-(cyanomethyl)-3′-(methylsulfonyl)biphenyl-4-yl)ethyl)-piperidine-2-carboxamide Trifluoroacetate]	39.8 nM
Cn1nccc1-c1ccc(C[C@@H](C#N)NC(=O)[C@@H]2CCCCN2)cc1 [Example 41, (2S)-N-[(1S)-1-Cyano-2-[4-(2-methylpyrazol-3-yl)phenyl]ethyl]piperidine-2-carboxamide trifluoroacetate]	398 nM
Cn1c(=O)oc2ccc(-c3ccc(C[C@@H](C#N)NC(=O)[C@@H]4CCCCN4)cc3)cc21 [Example 96, (S)-N-((S)-1-Cyano-2-(4-(3-methyl-2-oxo-2,3-dihydrobenzo[d]oxazol-5-yl)phenyl)ethyl)piperidine-2-carboxamide]	7.94 nM
COCCn1c(=O)sc2ccc(-c3ccc(C[C@@H](C#N)NC(=O)[C@@H]4CCCCN4)cc3)cc21 [Example 55, (S)-N-((S)-1-cyano-2-(4-(3-(2-methoxyethyl)-2-oxo-2,3-dihydrobenzo[d]thiazol-5-yl)phenyl)ethyl)piperidine-2-carboxamide]	5.01 nM
N#CCCNC(=O)c1cccc(-c2ccc(C[C@@H](C#N)NC(=O)[C@@H]3CCCCN3)cc2)c1 [Example 85, (S)-N-((S)-1-Cyano-2-(3′-(2-cyanoethylcarbamoyl)biphenyl-4-yl)ethyl)piperidine-2-carboxamide]	126 nM

Results, then the compound that gave them:

IC50	SMILES
79.4 nM	N#C[C@H](Cc1ccc(-c2cccc(CC(N)=O)c2)cc1)NC(=O)[C@@H]1CCCCN1 [Example 86, (S)-N-((S)-2-(3′-(2-amino-2-oxoethyl)biphenyl-4-yl)-1-cyanoethyl)piperidine-2-carboxamide Trifluoroacetate]
316 nM	N#C[C@H](Cc1ccc(-c2ccccc2)cc1)NC(=O)[C@@H]1CCCN1 [Example 3, (S)-N-((S)-2-(Biphenyl-4-yl)-1-cyanoethyl)pyrrolidine-2-carboxamide]
63.1 nM	N#C[C@H](Cc1ccc(-c2ccc(CCCO)cc2)cc1)NC(=O)[C@@H]1CCCCN1 [Example 27, (2S)-N-[(1S)-1-Cyano-2-[4-[4-(3-hydroxypropyl)phenyl]phenyl]ethyl]piperidine-2-carboxamide trifluoroacetate]
1580 nM	N#C[C@H](Cc1ccc(-c2ccccc2O)cc1)NC(=O)[C@@H]1CCCCN1 [Example 48, (2S)-N-[(1S)-1-Cyano-2-[4-(2-hydroxyphenyl)phenyl]ethyl]piperidine-2-carboxamide trifluoroacetate]
63.1 nM	N#C[C@H](Cc1ccc(-c2cccc(Cl)c2)cc1)NC(=O)[C@@H]1CCCCN1 [Example 1, (S)-N-((S)-2-(3′-Chlorobiphenyl-4-yl)-1-cyanoethyl)piperidine-2-carboxamide Trifluoroacetate]
10 nM	N#Cc1ccc(-c2ccc(C[C@@H](C#N)NC(=O)[C@@H]3CCCCN3)cc2)cc1F [Example 56, (S)-N-((S)-1-Cyano-2-(4′-cyano-3′-fluorobiphenyl-4-yl)ethyl)piperidine-2-carboxamide]
25.1 nM	CN(C)S(=O)(=O)c1ccc(-c2ccc(C[C@@H](C#N)NC(=O)[C@@H]3CCCCN3)cc2)cc1 [Example 20, (2S)-N-[(1S)-1-Cyano-2-[4-[4-(dimethylsulfamoyl)phenyl]phenyl]ethyl]piperidine-2-carboxamide trifluoroacetate]
126 nM	CC(=O)Nc1cccc(-c2ccc(C[C@@H](C#N)NC(=O)[C@@H]3CCCCN3)cc2)c1 [Example 8, (S)-N-((S)-2-(3′-Acetamidobiphenyl-4-yl)-1-cyanoethyl)piperidine-2-carboxamide Trifluoroacetate]
100 nM	COc1cccc(-c2ccc(C[C@@H](C#N)NC(=O)[C@@H]3CCCCN3)cc2)c1 [Example 15, (2S)-N-[(1S)-1-Cyano-2-(3′-methoxybiphenyl-4-yl)ethyl]piperidine-2-carboxamide Trifluoroacetate]
126 nM	N#C[C@H](Cc1ccc(-c2ccccc2)cc1)NC(=O)[C@@H]1CCCCN1 [Example 16, Piperidine-2-carboxylic acid (2-biphenyl-4-yl-1-cyano-ethyl)-amide]
